Assay results taken from PMC5449454, “Anti-Double-Stranded DNA IgG Participates in Renal Fibrosis through Suppressing the Suppressor of Cytokine Signaling 1 Signals” (Frontiers in Immunology, 2017).
Where no end group is shown, it is not given here.

Tests used:
MRL/lpr mice = conditions: ref [28]; cited from earlier work
Source text: The JAK2/STAT1 pathway mediates the renal damage in lupus models induced by anti-dsDNA antibodies. […] Moreover, STAT1 deficiency in the lupus-like chronic graft-versus-host disease model led to a prolonged but amplified increase of anti-dsDNA IgG in sera and also higher proteinuria and mortality ([29]). This phenomenon might be du ...

anti-dsDNA IgG = assay: MALDI-TOF MS, catalysis of peptide by anti-dsDNA IgG; set-up: species or system murine; conditions: peptide 2 µg/ml with IgG (molar ratio = 1:5), 37°C, 30 min, triplicate
Protocol: Matrix-assisted laser desorption/ionization–time of flight mass spectrometry was performed for identifying the sequences of peptide fragments. As described previously ([36]), an ABI 4800 Analyzer (AB Science, Foster City, CA, USA) was used for such analysis. The ALW (L-form or D-form) and KIR peptides (2 µg/ml) were mixed with anti-dsDNA IgG or control IgG (molar ratio = 1:5), respectively. The mixtures were incubated at 37°C for 30 min. Then, these samples were diluted in distilled water (1:100) and then mixed with the α-cyano-4-hydroxycinnamic acid matrix at a ratio of 1:1. Samples in triplicate were then loaded to the MALDI target. Mass spectrum was produced on 80 individual spectra of each spot.

KIR peptide (SOCS1) = molecular target: T1, KIR peptide (SOCS1) (Mus musculus, UniProt O35716); assay: Surface plasmon resonance, JAK2 loop peptide over immobilized biotinylated KIR peptide; type: binding; conditions: SPR, JAK2 loop peptide 0–250 nM
T1 construct: The KIR of SOCS1 was synthesized as a 16-mer peptide (2.09 kDa); purchased Sangon Biotech Company (Shanghai, China); host or cells: chemical synthesis
Protocol: The Biacore 3000 instrument (Biacore, Piscataway, NJ, USA) was used for the quantitation of binding affinities ([8], [35]). For anti-dsDNA IgG binding to KIR peptide, anti-dsDNA IgG (10 nM in MES buffer) was immobilized on a CM sensor chip (GE Healthcare, Port Washington, NY, USA), and then KIR peptide (0–250 nM in HEPES buffer) was run on chip. For JAK2 loop peptide binding to KIR peptide, the biotinylated KIR peptide (5 nM) was immobilized on streptavidin-coated sensor chip, followed by injection of JAK2 loop peptide (0–250 nM). A simple Langmuir model (A + B ↔ AB) was used for calculating binding kinetics.

[1] = molecular target: T2, biotinylated SOCS1 kinase inhibitory region (KIR) peptide (also: biotinylated (position not given here)); assay: SPR; Biacore 3000; biotinylated KIR peptide (5 nM) immobilised on a streptavidin-coated sensor chip, JAK2 loop peptide injected at 0-250 nM; simple Langmuir model (A + B ↔ AB); conditions: both partners purified
T2 construct: Captured by its biotin on streptavidin-coated sensor chips and plates; An unbiotinylated KIR peptide was run over the immobilised anti-dsDNA IgG only; also called SOCS1-KIR; biotinylated KIR peptide; source: synthetic peptide (Sangon Biotech Company)
T2 peptide: DTHFRTFRSHSDYRRI

[2] = molecular target: T2, biotinylated SOCS1 kinase inhibitory …; assay: ELISA; inhibition ELISA; biotinylated KIR peptide (5 µg/ml) on streptavidin-coated 96-well plates; FITC-labeled JAK2 loop peptide (0.2 µg/ml) pre-incubated with serially diluted anti-dsDNA IgG (0.02 to 20 µg/ml) or control IgG; fluorescein intensity read; conditions: both partners purified

Question: What does the source list for `N#C/C(=C\c1ccc(O)c(O)c1)C(=O)NCc1ccccc1` [tyrphostin AG490]?
Answer: glomerular deposition of anti-dsDNA IgG (MRL/lpr mice): decrease; phosphorylation of JAK2 (MRL/lpr mice): significantly inhibited; phosphorylation of STAT1 (MRL/lpr mice): significantly inhibited; proteinuria (MRL/lpr mice): decrease; renal histological lesions (MRL/lpr mice): decrease; serum titer of anti-dsDNA IgG (MRL/lpr mice): decrease

Question: With DTHFRTFRSHSDYRRI [KIR peptide] as the molecule, how does the “catalysis of KIR peptide by anti-dsDNA IgG” value (anti-dsDNA IgG) read?
Answer: The value was “almost catalyzed by anti-dsDNA IgG”.

Question: What does the source list for LPQDKEYYKVKEP [JAK2 loop peptide]?
Answer: Kd (KIR peptide (SOCS1); Biacore 3000, biotinylated KIR peptide (5 nM) immobilized on streptavidin chip, simple Langmuir model): 44.6 nM; kon (KIR peptide (SOCS1); biotinylated KIR peptide immobilized, Langmuir model, read-out: Ka (association rate)): 13500 M⁻¹ s⁻¹; koff (KIR peptide (SOCS1); biotinylated KIR peptide immobilized, Langmuir model, read-out: Kd (dissociation rate)): 0.000603 s⁻¹

B1: JAK2 loop peptide (peptide)
peptide: LPQDKEYYKVKEP
notes: loop region of Janus kinase 2 (JAK2), 13-mer, 1.64 kDa; the SPR methods name the 'JAK2 loop peptide' without a label; source: synthetic peptide (Sangon Biotech Company)
Question: For B1, which Kd [1] is on record?
Answer: Its Kd is 44.6 nM.

Question: What about the koff [1] of the same molecule?
Answer: The koff was 0.000603 s⁻¹.

Question: And the kon [1]?
Answer: The kon was 13500 M⁻¹ s⁻¹.

B2: FITC-labeled JAK2 loop peptide (peptide)
peptide: LPQDKEYYKVKEP
modifications: also: FITC-labeled (position not given here)
notes: loop region of Janus kinase 2 (JAK2), 13-mer; also called FITC–JAK2 loop; FITC (0.39 kDa)–JAK2 loop; source: synthetic peptide (Sangon Biotech Company)
Question: Does B2 bind [2]?
Answer: Result: binds
